This assay concerns the target T1, human Polq polymerase domain (Homo sapiens, UniProt O75417).
T1 sequence (O75417 1792-2590): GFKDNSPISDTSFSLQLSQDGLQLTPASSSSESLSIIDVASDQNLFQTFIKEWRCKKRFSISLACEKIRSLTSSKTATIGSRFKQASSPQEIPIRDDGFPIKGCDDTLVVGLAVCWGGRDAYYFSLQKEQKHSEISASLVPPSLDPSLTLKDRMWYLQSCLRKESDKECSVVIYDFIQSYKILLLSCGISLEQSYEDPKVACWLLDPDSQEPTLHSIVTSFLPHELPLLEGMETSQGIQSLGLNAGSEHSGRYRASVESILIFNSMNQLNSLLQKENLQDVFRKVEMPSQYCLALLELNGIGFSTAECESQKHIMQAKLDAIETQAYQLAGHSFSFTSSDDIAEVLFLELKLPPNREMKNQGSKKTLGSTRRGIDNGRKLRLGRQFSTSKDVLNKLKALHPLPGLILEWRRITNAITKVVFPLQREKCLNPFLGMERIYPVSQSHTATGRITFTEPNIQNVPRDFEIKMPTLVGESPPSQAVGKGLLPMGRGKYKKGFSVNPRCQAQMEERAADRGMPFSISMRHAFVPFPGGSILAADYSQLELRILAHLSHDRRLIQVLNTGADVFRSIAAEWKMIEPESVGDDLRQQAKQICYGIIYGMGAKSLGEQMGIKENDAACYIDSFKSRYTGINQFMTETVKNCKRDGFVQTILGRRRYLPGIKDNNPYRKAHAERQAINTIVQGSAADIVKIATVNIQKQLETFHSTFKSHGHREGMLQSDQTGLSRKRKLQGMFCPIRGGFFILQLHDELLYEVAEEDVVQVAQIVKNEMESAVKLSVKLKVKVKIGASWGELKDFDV
Briefly: Cy5 fluorescence assay of Polq polymerase domain inhibition. Type of assay: biochemical. The method, then: The following Cy5 fluorescence assay was used to measure the ability of compounds to inhibit Polq polymerase domain in vitro. The fluorescent based assay was performed as follows: 60 nM of the pre-annealed primer-template containing a 5′ Cy5 fluorophore conjugated template strand (SEQ ID NO:3: 5′-/5Cy5/[…]-3′), a downstream complementary oligo conjugated with a 3′ Blackhole quencher (SEQ ID NO:4: 5′-CTAAGCTCACAGTG/3IAbRQSp/-3′) and a primer strand (SEQ ID NO:5: 5′-CTGTCCTGCATGATG-3′) was mixed with 50 uM 2′-deoxyribonucleoside triphosphates (dNTPs), 0.1 mg/mL Bovine serum albumin (BSA), 0.01% NP-40, 10% glycerol, 1 mM dithiothreitol (DTT), 10 mM MgCl2, 25 mM TrisHCl pH 7.8 in the presence of 2.5% DMSO with or without various concentrations (7-point dilution series) of Polq small molecule inhibitors represented by Formula I at 37 °C in a volume of 40 μL.

Setting [1] is: 5 nM Polq polymerase domain (residues 1792-2590), 60 nM primer-template, 50 uM dNTPs, 37 °C, 18 min, read-out: IC50 (nM) Polq.

Read-outs that look alike come from different tables or passages of the source.

Usually IC50 stands for the concentration that gives 50% inhibition. Take `Cc1cc(C(F)(F)F)cc(N2CCOC2=O)c1OC(=O)N(C)c1ccc(F)cc1` [Example 15, 4-(trifluoromethyl)-2-methyl-6-(2-oxooxazolidin-3-yl)phenyl 4-fluorophenylmethylcarbamate]: the IC50 under setting [1] is 80 nM.
For the compound `CN(C(=O)Oc1c(N2C(=O)NC(O)C2O)cc(C(F)(F)F)cc1C(F)(F)F)c1ccc(F)cc1` (stereo not drawn) [Example 16, 2-(4,5-dihydroxy-2-oxoimidazolidin-1-yl)-4,6-bis(trifluoromethyl)phenyl N-(4-fluorophenyl)-N-methylcarbamate], the IC50 was 5.4 nM.
Same read-out and setting: to `C[C@@H]1CCC(=O)N1c1cc(C(F)(F)F)cc(C(F)(F)F)c1OC(=O)N(C)c1ccc(F)cc1` [Example 17, 2-[(2R)-2-methyl-5-oxopyrrolidin-1-yl]-4,6-bis(trifluoromethyl)phenyl N-(4-fluorophenyl)-N-methylcarbamate] belongs 1000 nM.
Same read-out and setting: under `CN(C(=O)Oc1c(N2CC(C(F)(F)F)NC2=O)cc(C(F)(F)F)cc1C(F)(F)F)c1ccc(F)cc1` (stereo not drawn) [Example 18, 2-(2-oxo-4-(trifluoromethyl)imidazolidin-1-yl)-4,6-bis(trifluoromethyl)phenyl (4-fluorophenyl)(methyl)carbamate] stands 22 nM.
`CN(C(=O)Oc1c(N2CC[C@H](O)C2=O)cc(C(F)(F)F)cc1C(F)(F)F)c1ccc(F)cc1` [Example 19, 2,4-bis(trifluoromethyl)-6-((S)-3-hydroxy-2-oxopyrrolidin-1-yl)phenyl 4-fluorophenylmethylcarbamate]: the half-inhibitory concentration (IC50) under setting [1] was 16 nM.
For the compound `CC(O)CN1CCN(c2cc(C(F)(F)F)cc(C(F)(F)F)c2OC(=O)N(C)c2ccc(F)cc2)C1=O` (stereo not drawn) [Example 20, 2,4-bis(trifluoromethyl)-6-(3-(2-hydroxypropyl)-2-oxoimidazolidin-1-yl)phenyl 4-fluorophenylmethylcarbamate], under setting [1], the IC50 is 2.4 nM.
For the compound `CN(C(=O)Oc1c(N2CCN(CCOS(N)(=O)=O)C2=O)cc(C(F)(F)F)cc1C(F)(F)F)c1ccc(F)cc1` [Example 21, 2-{2-oxo-3-[2-(sulfamoyloxy)ethyl]imidazolidin-1-yl}-4,6-bis(trifluoromethyl)phenyl N-(4-fluorophenyl)-N-methylcarbamate], half-maximal inhibition (IC50) was put at 1.9 nM.
Still for that read-out and setting: to `CN(C(=O)Oc1c(N2CCN(CC3(O)CN(C(=O)OC(C)(C)C)C3)C2=O)cc(C(F)(F)F)cc1C(F)(F)F)c1ccc(F)cc1` [Example 23, tert-butyl 3-((3-(2-(((4-fluorophenyl)(methyl)carbamoyl)oxy)-3,5-bis(trifluoromethyl)phenyl)-2-oxoimidazolidin-1-yl)methyl)-3-hydroxyazetidine-1-carboxylate] belongs 1.8 nM.
Take `CN(C)CC(O)CN1CCN(c2cc(C(F)(F)F)cc(C(F)(F)F)c2OC(=O)N(C)c2ccc(F)cc2)C1=O` (stereo not drawn) [Example 24, 2-(3-(3-(dimethylamino)-2-hydroxypropyl)-2-oxoimidazolidin-1-yl)-4,6-bis(trifluoromethyl)phenyl (4-fluorophenyl)(methyl)carbamate]: the IC50 under setting [1] was 6.7 nM.
As to `CN(C(=O)Oc1c(N2CCN(CC3CO3)C2=O)cc(C(F)(F)F)cc1C(F)(F)F)c1ccc(F)cc1` (stereo not drawn) [Example 25, 2,4-bis(trifluoromethyl)-6-(3-((oxiran-2-yl)methyl)-2-oxoimidazolidin-1-yl)phenyl (4-fluorophenyl)(methyl)carbamate], the 50% inhibitory concentration (IC50) came out at 5.8 nM.
On to `CN(C(=O)Oc1c(N2CCNC2=O)cc(C(F)(F)F)cc1C(F)(F)F)c1ccc(OC(F)F)cc1` [Example 26, 2-(2-oxoimidazolidin-1-yl)-4,6-bis(trifluoromethyl)phenyl (4-(difluoromethoxy)phenyl)(methyl)carbamate], for which inhibition was half-maximal at 48 nM (IC50).
Take `CN1C(=O)CN(c2cc(C(F)(F)F)cc(C(F)(F)F)c2OC(=O)N(C)c2ccc(F)cc2)C1=O` [Example 27, 2-(3-methyl-2,4-dioxoimidazolidin-1-yl)-4,6-bis(trifluoromethyl)phenyl N-(4-fluorophenyl)-N-methylcarbamate]: half-maximal inhibition (IC50) was put at 24 nM.

(Values after patent US20260356820A1, “Pyrrolidine and Imidazolidine Based DNA Polymerase Theta Inhibitors and Use Thereof” (Thomas Jefferson University, priority 2022, published 2026).)
